Assay results from patent US4933350A, “Pyrroloisoquinolines useful as hypercholesterolemic and hyperlipoprotienimic agents” (May & Baker Limited, priority 1987, dated 1990).

How the values were obtained:
[1] = biological target: T1, rat hepatic microsomal HMG CoA reductase (Rattus norvegicus, UniProt P51639); assay: inhibition in rat hepatic microsomal HMG CoA reductase activity in vitro (Table I); assay type: biochemical; conditions: for inhibition at 0.0091 µg/mL: 0.0091 micrograms/ml; for inhibition at 0.0274 µg/mL: 0.0274 micrograms/ml; for inhibition at 0.082 µg/mL: 0.082 micrograms/ml; for inhibition at 0.24 µg/mL: 0.24 micrograms/ml; for inhibition at 0.74 µg/mL: 0.74 micrograms/ml; for inhibition at 2.22 µg/mL: 2.22 micrograms/ml; for inhibition at 0.25 µg/mL: 0.25 micrograms/ml; for inhibition at 0.2 µg/mL: 0.2 micrograms/ml; for inhibition at 20 µg/mL: 20.0 micrograms/ml; for inhibition at 6.7 µg/mL: 6.7 micrograms/ml; for inhibition at 6.66 µg/mL: 6.66 micrograms/ml
T1 construct: rat hepatic microsomal HMG CoA reductase activity in vitro; from tissue; host or cells: rat liver microsomes
T1 sequence (P51639 1-887): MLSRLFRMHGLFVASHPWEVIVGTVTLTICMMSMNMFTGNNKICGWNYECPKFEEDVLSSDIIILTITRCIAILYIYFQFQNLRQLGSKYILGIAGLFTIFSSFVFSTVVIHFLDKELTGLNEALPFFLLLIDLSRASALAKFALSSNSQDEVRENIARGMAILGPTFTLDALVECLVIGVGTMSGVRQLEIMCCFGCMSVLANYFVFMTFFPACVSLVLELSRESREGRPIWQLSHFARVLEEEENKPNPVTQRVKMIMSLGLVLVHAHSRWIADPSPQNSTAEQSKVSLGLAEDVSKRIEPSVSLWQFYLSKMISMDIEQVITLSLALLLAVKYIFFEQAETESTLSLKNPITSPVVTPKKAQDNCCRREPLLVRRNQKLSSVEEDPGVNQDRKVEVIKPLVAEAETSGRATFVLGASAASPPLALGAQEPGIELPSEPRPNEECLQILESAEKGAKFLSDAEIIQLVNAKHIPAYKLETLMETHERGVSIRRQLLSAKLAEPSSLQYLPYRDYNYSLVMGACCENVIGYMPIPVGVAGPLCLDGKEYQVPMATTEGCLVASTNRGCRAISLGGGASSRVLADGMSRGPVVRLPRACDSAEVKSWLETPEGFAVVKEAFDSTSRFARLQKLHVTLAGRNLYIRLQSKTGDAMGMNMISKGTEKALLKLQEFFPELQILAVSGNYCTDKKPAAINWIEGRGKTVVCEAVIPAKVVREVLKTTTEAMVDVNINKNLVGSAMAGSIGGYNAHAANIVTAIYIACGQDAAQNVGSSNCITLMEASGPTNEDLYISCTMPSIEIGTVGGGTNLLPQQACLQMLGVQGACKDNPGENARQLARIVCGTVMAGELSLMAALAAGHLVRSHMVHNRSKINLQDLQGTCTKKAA

cholesterol biosynthesis = assay: inhibition in cholesterol biosynthesis, in vivo tests in rats, oral (Table II)
Excerpt: In the table the doses are expressed in mg/kg animal body weight.

SMILES	inhibition at 0.0274 µg/mL [1]	inhibition at 0.082 µg/mL [1]	inhibition at 0.24 µg/mL [1]	inhibition at 0.74 µg/mL [1]	inhibition at 2.22 µg/mL [1]	inhibition at 20 µg/mL [1]	inhibition at 6.66 µg/mL [1]	also measured
CC(C)c1c(/C=C/C(O)CC(O)CC(=O)[O-])c(-c2ccccc2)c2c3ccccc3ccn12.[Na+] (centres unmarked) [Compound B, sodium (E)-3,5-dihydroxy-7-(3-isopropyl-1-phenylpyrrolo[2,1-a]isoquinolin-2-yl)hept-6-enoate]	–	–	–	–	–	98%	–	inhibition at 0.025 µg/mL ([1]; 0.025 micrograms/ml): 16%; inhibition at 0.1 µg/mL ([1]; 0.1 micrograms/ml): 28%; inhibition at 0.2 µg/mL [1]: 43%; inhibition at 0.4 µg/mL ([1]; 0.4 micrograms/ml): 44%; inhibition at 1.6 µg/mL ([1]; 1.6 micrograms/ml): 72%; inhibition at 2 µg/mL ([1]; 2.0 micrograms/ml): 81%; inhibition at 6.4 µg/mL ([1]; 6.4 micrograms/ml): 91%; % Inhibition in cholesterol biosynthesis (cholesterol biosynthesis; oral dose 1.11 mg/kg): 67%; % Inhibition in cholesterol biosynthesis (cholesterol biosynthesis; oral dose 3.33 mg/kg): 77%; % Inhibition in cholesterol biosynthesis (cholesterol biosynthesis; oral dose 10.0 mg/kg): 91%
CC(C)c1c(/C=C/C(=O)CC(O)CC(=O)O)c(-c2ccccc2)c2c3ccccc3ccn12 (centres unmarked) [Compound E, (E)-3-hydroxy-7-(3-isopropyl-1-phenylpyrrolo[2,1-a]isoquinolin-2-yl)-5-oxohept-6-enoic acid]	–	–	–	–	–	90%	–	inhibition at 2.2 µg/mL ([1]; 2.2 micrograms/ml): 50%; inhibition at 6.7 µg/mL [1]: 71%
CC(C)c1c(CCC2CC(O)CC(=O)O2)c(-c2ccccc2)c2c3ccccc3ccn12 (centres unmarked) [Compound G, 4-hydroxy-6-[2-(3-isopropyl-1-phenylpyrrolo[2,1-a]isoquinolin-2-yl)ethyl]-3,4,5,6-tetrahydro-2H-pyran-2-one]	–	–	–	–	–	44%	–	inhibition at 6.7 µg/mL [1]: 38%
CCOC(=O)CC(O)CC(O)/C=C/c1c(-c2ccccc2)c2c3ccccc3ccn2c1C (centres unmarked) [Compound H, ethyl (E)-3,5-dihydroxy-7-(3-methyl-1-phenylpyrrolo[2,1-a]-isoquinolin-2-yl)hept-6-enoate]	–	–	26%	22%	33%	70%	54%	–
Cc1c(/C=C/C(O)CC(O)CC(=O)O)c(-c2ccccc2)c2c3ccccc3ccn12 (centres unmarked) [Compound I, sodium (E)-3,5-dihydroxy-7-(3-methyl-1-phenylpyrrolo[2,1-a]isoquinolin-2-yl)hept-6-enoate]	–	44%	–	35%	46%	85%	68%	inhibition at 0.25 µg/mL [1]: 39%
CCc1c(/C=C/C(O)CC(O)CC(=O)O)c(-c2ccc(F)cc2)c2c3ccccc3ccn12 (centres unmarked) [Compound K, sodium (E)-3,5-dihydroxy-7-{3-ethyl-1-(4-fluorophenyl)pyrrolo-[2,1-a]isoquinolin-2-yl}hept-6-enoate]	27%	33%	46%	68%	86%	–	95%	–
CC(C)c1c(/C=C/C(O)CC(O)CC(=O)O)c(-c2ccc(F)cc2)n2ccc3ccccc3c12 (centres unmarked) [Compound M, sodium (E)-3,5-dihydroxy-7-{1-isopropyl-3-(4-fluorophenyl)pyrrolo[2,1-a]isoquinolin-2-yl}hept-6-enoate]	–	–	–	78%	90%	98%	96%	inhibition at 0.0025 µg/mL ([1]; 0.0025 micrograms/ml): 33%; inhibition at 0.0074 µg/mL ([1]; 0.0074 micrograms/ml): 46%; inhibition at 0.022 µg/mL ([1]; 0.022 micrograms/ml): 63%; inhibition at 0.066 µg/mL ([1]; 0.066 micrograms/ml): 69%; inhibition at 0.2 µg/mL [1]: 74%; inhibition at 0.22 µg/mL ([1]; 0.22 micrograms/ml): 65%
CC(C)c1c(/C=C/C(=O)CC(O)CC(=O)O)c(-c2ccc(F)cc2)c2c3ccccc3ccn12 (centres unmarked) [Compound Q, sodium (E)-3-hydroxy-7-{3-isopropyl-1-(4-fluorophenyl)pyrrolo-[2,1-a]isoquinolin-2-yl}-5-oxohept-6-enoate]	–	8%	22%	45%	70%	–	89%	–
CC(C)c1c(/C=C/C(O)CC(O)CC(=O)O)c(-c2ccc(F)cc2)c2c3ccccc3ccn12 (centres unmarked) [O, sodium (E)-3,5-dihydroxy-7-{3-isopropyl-1-(4-fluorophenyl)pyrrolo[2,1-a]isoquinolin-2-yl}-hept-6-enoate]	–	–	69%	81%	92%	99%	97%	–

The next lines start with results.

inhibition at 0.0274 µg/mL [1]	SMILES	inhibition at 0.082 µg/mL [1]	inhibition at 0.24 µg/mL [1]	inhibition at 0.74 µg/mL [1]	inhibition at 2.22 µg/mL [1]	inhibition at 20 µg/mL [1]	inhibition at 6.66 µg/mL [1]	also measured
51%	CC(C)c1c(/C=C/[C@@H](O)C[C@@H](O)CC(=O)O)c(-c2ccc(F)cc2)c2c3ccccc3ccn12 (relative stereo) [OA, sodium erythro-(E)-3,5-dihydroxy-7-{3-isopropyl-1-(4-fluorophenyl)pyrrolo[2,1-a]isoquinolin-2-yl}-hept-6-enoate]	63%	74%	87%	95%	–	–	inhibition at 0.00304 µg/mL ([1]; 0.00304 micrograms/ml): 37%; inhibition at 0.0091 µg/mL [1]: 43%
21%	CC(C)c1c(/C=C/[C@@H](O)C[C@H](O)CC(=O)O)c(-c2ccc(F)cc2)c2c3ccccc3ccn12 (relative stereo) [OB, sodium threo-(E)-3,5-dihydroxy-7-{3-isopropyl-1-(4-fluorophenyl)pyrrolo[2,1-a]isoquinolin-2-yl}-hept-6-enoate]	29%	–	53%	70%	–	–	inhibition at 0.25 µg/mL [1]: 38%
55%	CCOC(=O)CC(O)CC(O)/C=C/c1c(-c2ccc(F)cc2)c2c3ccccc3ccn2c1C(C)C (centres unmarked) [N, ethyl (E)-3,5-dihydroxy-7-{3-isopropyl-1-(4-fluorophenyl)pyrrolo[2,1-a]isoquinolin-2-yl}hept-6-enoate]	61%	–	87%	95%	–	–	inhibition at 0.0091 µg/mL [1]: 44%; inhibition at 0.25 µg/mL [1]: 74%
